# US20250311722A1, “IMPROVED BIOCIDE” (Purgos ApS, priority 2022, published 2025)
# Several values for one entry are separate records, joined by “and”; a condition that tells them apart may be missing. Equal values may be shown once. Read-outs that look alike come from different tables or passages of the source.
# Assays:
# bacteria = test: PVB dispersion treated with NBDA: microbial contamination by cATP (LuminUltra); format: cell-based; set-up: bacteria count: unit not given here
# [1] = tested on: Debaryomyces hansenii ISI 12; test: Minimum bactericidal concentration (MBC); format: cell-based; set-up: MBC data (outgrowth): unit not given here
# Source text: (§1) Even when no growth is detectable in the MIC tests, it is possible that the microorganisms have survived the treatment i.e., they are not killed but just prevented from growing. In order to test for survivors, MBC plates were subsequently made from the MIC plates.
# [2] = tested on: Leuconostoc mesenteroides ISI 504; test: Minimum bactericidal concentration (MBC); format: cell-based; set-up: MBC data (outgrowth): unit not given here
# Source text: as §1
# Poliovirus = format: cell-based
# rat [3] = test: LD50 (rat, oral); format: in vivo; conditions: extrapolated from rat LD50 4250 mg/kg
# [4] = tested on: Enterococcus hierae, ATCC 10541; test: EN 1276 quantitative suspension test, bactericidal activity; format: cell-based, Enterococcus hirae; conditions: all tested contact times (5, 60 min) and concentrations (1.5%, 3%, 6%)
# Procedure: The test was carried out according to EN 1276, 2019: Chemical disinfectants and antiseptics-Quantitative suspension test for the evaluation of bactericidal activity of chemical disinfectants and antiseptics used in food, industrial, domestic, and institutional areas-Test method and requirements. […] The growth media TSB (Tryptic Soy Broth) was separately inoculated with a culture loop of the microorganisms. The cultures were incubated at 37° C. for 24 hours. Bovine Serum Albumin with a final concentration of 3 g/L Polysorbate 80 with a concentration of 30 g/L The used method was Dilution-neutralization method. 1 mL of interfering substance was pipetted into a tube and 1 mL of the test suspension was added and mixed. […] The solution was incubated at 20° C. for 5 min. and 60 min. respectively. […] After 5 min. of neutralization time 100 μL of the mixture was added to a petri-dish containing TSA media. Another 100 μL was added to a tube containing 900 μL 0.9% NaCl and a serial dilution to 10^-5 was made. The mixtures added to the agar plates were evenly distributed with a Drigalski-spatula. The agar plates were incubated at 37° C. for 24 hours. After incubation, the number of surviving bacteria (CFU) was counted. The test was performed in 3 replicates.
# [5] = tested on: Pseudomonas aeruginosa, ATCC 10145; test: PT6 screening, in-can preservation of acrylic paint (ATP, aerobic and anaerobic growth on agar plate); format: cell-based
# Procedure: The microbial activity in relation to in-can preservation of paint was tested using three methods: ATP measurement, Aerobic growth on agar plate and Anaerobic growth on agar plate in low-air conditions. […] Furthermore, no significant dependence on concentration was shown in these specific tests. Specific about the ATP measurements: test and method developed by Luminultra. A sample is taken from the test paint at a given time and the total amount of ATP is measured. Total ATP amount are measured at Day 7 and 30. After every ATP measurement, streaking of test material on agar plates has been performed. Growth test in aerobic and anaerobic environment are running in 1 and 14 days, respectively. Test organism: Pseudomonas aeruginosa, ATCC 10145 [table] The commercial biocide used for the results listed in Table VIII is Vinkocide CMIK R. Acrylic paint is standard EN152 (modified without PT6 biocide). P. aeruginosa are inoculated in 200 μl concentration to paint sample size of 140 ml in a sterile “paint can-shape” container. Shark Solution candidate A and the commercial biocide are added to the standard paint and mixed in a shaker machine. Every matrix is tested in two replications (n=2) with an additional replication without inoculation of bacteria.
# Murine norovirus = test: ASTM E1052 Kill Time Screen test, antiviral activity; format: cell-based
# rat [6] = conditions: cited from earlier work
# [7] = 0.50% NBDA, 25° C.(RT), after 1 mo
# [8] = 0.50% NBDA, 25° C.(RT), after 1 wk
# [9] = 0.50% NBDA, 25° C.(RT), after 3 mo
# [10] = 0.50% NBDA, 25° C.(RT), after 6 mo
# [11] = 0.50% NBDA, 25° C.(RT), after 1 d
# [12] = 1.00% NBDA, 25° C.(RT), after 1 mo
# [13] = 1.00% NBDA, 25° C.(RT), after 1 wk
# [14] = 1.00% NBDA, 25° C.(RT), after 3 mo
# [15] = 1.00% NBDA, 25° C.(RT), after 6 mo
# [16] = 1.00% NBDA, 25° C.(RT), after 1 d
smiles,measurement,setting,value
"CCCCN(CCO)CCO [NBDA, N-butyldiethanolamine]",BSI,bacteria; [7],13
same,bacteria count,bacteria; [7],34.8
same,pH,bacteria; [7],9.73
same,BSI,bacteria; [8],17
same,bacteria count,bacteria; [8],147
same,pH,bacteria; [8],9.65
same,BSI,bacteria; [9],67
same,bacteria count,bacteria; [9],22.7
same,pH,bacteria; [9],9.62
same,BSI,bacteria; [10],50
same,bacteria count,bacteria; [10],5.77
same,pH,bacteria; [10],9.58
same,BSI,bacteria; [11],4
same,bacteria count,bacteria; [11],2930
same,pH,bacteria; [11],9.77
same,bacteria count,"bacteria; 0.50% NBDA, 32° C., after 1 mo",9.47
same,bacteria count,"bacteria; 0.50% NBDA, 32° C., after 1 wk",81
same,bacteria count,"bacteria; 0.50% NBDA, 32° C., after 3 mo",5.66
same,bacteria count,"bacteria; 0.50% NBDA, 32° C., after 1 d",215
same,bacteria count,"bacteria; 0.50% NBDA, 60° C., after 1 mo",126
same,bacteria count,"bacteria; 0.50% NBDA, 60° C., after 1 wk",276
same,bacteria count,"bacteria; 0.50% NBDA, 60° C., after 3 mo",4.2
same,bacteria count,"bacteria; 0.50% NBDA, 60° C., after 1 d",420
same,BSI,bacteria; [12],10
same,bacteria count,bacteria; [12],39.1
same,pH,bacteria; [12],9.86
same,BSI,bacteria; [13],24
same,bacteria count,bacteria; [13],183
same,pH,bacteria; [13],9.89
same,BSI,bacteria; [14],60
same,bacteria count,bacteria; [14],3.77
same,pH,bacteria; [14],9.93
same,BSI,bacteria; [15],83
same,bacteria count,bacteria; [15],1.36
same,pH,bacteria; [15],9.67
same,BSI,bacteria; [16],6
same,bacteria count,bacteria; [16],1530
same,pH,bacteria; [16],10.2
same,bacteria count,"bacteria; 1.00% NBDA, 32° C., after 1 mo",17.9
same,bacteria count,"bacteria; 1.00% NBDA, 32° C., after 1 wk",13.5
same,bacteria count,"bacteria; 1.00% NBDA, 32° C., after 3 mo",0.94
same,bacteria count,"bacteria; 1.00% NBDA, 32° C., after 1 d",338
same,bacteria count,"bacteria; 1.00% NBDA, 60° C., after 1 mo",202
same,bacteria count,"bacteria; 1.00% NBDA, 60° C., after 1 wk",387
same,bacteria count,"bacteria; 1.00% NBDA, 60° C., after 3 mo",9.3
same,bacteria count,"bacteria; 1.00% NBDA, 60° C., after 1 d",244
same,effectiveness as sole biocide additive,"bacteria; concentration 0.5%, long term, RT, 32° C. and 60° C.",highly effective as the sole biocide additive
same,MBC (%),[1],2.5%
same,MBC data (outgrowth),[1]; 0.02% NBDA,1.491 and 1.495
same,MBC data (outgrowth),[1]; 0.04% NBDA,1.493 and 1.461
same,MBC data (outgrowth),[1]; 0.08% NBDA,1.472
same,MBC data (outgrowth),[1]; 0.16% NBDA,1.473 and 1.469
same,MBC data (outgrowth),[1]; 0.31% NBDA,1.432 and 1.393
same,MBC data (outgrowth),[1]; 0.63% NBDA,1.387 and 1.458
same,MBC data (outgrowth),[1]; 1.25% NBDA,1.333 and 1.309
same,MBC data (outgrowth),[1]; 2.50% NBDA,0.074
same,MBC data (outgrowth),[1]; 5.00% NBDA,0.068 and 0.069
same,MBC (%),[2],0.63%
same,MBC data (outgrowth),[2]; 0.02% NBDA,1.449 and 1.467
same,MBC data (outgrowth),[2]; 0.04% NBDA,1.449 and 1.468
same,MBC data (outgrowth),[2]; 0.08% NBDA,1.413 and 1.467
same,MBC data (outgrowth),[2]; 0.16% NBDA,1.337 and 1.425
same,MBC data (outgrowth),[2]; 0.31% NBDA,1.452 and 1.448
same,MBC data (outgrowth),[2]; 1.25% NBDA,0.075
same,MBC data (outgrowth),[2]; 2.50% NBDA,0.076 and 0.077
same,MBC data (outgrowth),[2]; 5.00% NBDA,0.066 and 0.067
same,Mean log reduction after 60 seconds,Poliovirus; 1.0% NBDA,0.26
same,Mean log reduction after 60 seconds,Poliovirus; 5.0% NBDA,0.17
same,human consummation equivalent to LD50,rat [3],319 gram pr 75 kg
same,log changes of CFU,[4],lower than 5 log units
same,anti-microbial potential in paint,"[5]; 1, 2 and 5% NBDA",reveal anti-microbial potentials
same,effectiveness in in-can preservation of paints,"[5]; concentrations of 0.5%, 1%, 2%, and 5%",effective against aerobic bacteria
same,Mean log reduction after 60 seconds,Murine norovirus; 1.0% NBDA,0.34
same,Mean log reduction after 60 seconds,Murine norovirus; 5.0% NBDA,0.34
same,Norovirus eliminated (destroyed) in 60 seconds,Murine norovirus; from log reduction 0.34,54%
same,"LD50 (rat, oral)",rat [6],4250 mg/kg
